Measured values reported in patent publication US20140045890A1, “NOVEL COMPOUNDS” (SYNGENTA PARTICIPATIONS AG, priority 2011, published 2014).

Legend:
[1] = test system: Blumeria qraminis f. sp. tritici (Erysiphe qraminis f. sp. tritici); experiment: Blumeria graminis f. sp. tritici / wheat / leaf disc preventative (powdery mildew on wheat); format: in vivo; conditions: foliar, wheat leaf segments cv. Kanzler, inoculated 1 day after application, assessed 6-8 days after application, read-out: inhibit fungal infestation (percent disease control compared to untreated)
Phytophthora infestans = experiment: whole plant or invertebrate; format: in vivo; conditions: in Solanum lycopersicum, foliar, read-out: inhibit fungal infestation (percent disease control compared to untreated)
Pythium ultimum = Pythium ultimum / liquid culture (seedling damping off); format: cell-based; conditions: Globisporangium ultimum, liquid culture in PDB, 24° C., 2-3 days after application, read-out: inhibit fungal infestation (inhibition of growth determined photometrically)
Plasmopara viticola = Plasmopara viticola / grape / leaf disc preventative; format: in vivo; conditions: foliar, grape vine leaf disks, inoculated 1 day after application, assessed 6-8 days after application, read-out: inhibit fungal infestation (percent disease control compared to untreated)
[2] = test system: Phaeosphaeria nodorum (Septoria nodorum); experiment: Phaeosphaeria nodorum (Septoria nodorum) / wheat / leaf disc preventative (glume blotch); format: in vivo; conditions: Parastagonospora nodorum, foliar, wheat leaf segments cv. Kanzler, inoculated 2 days after application, assessed 5-7 days after application, read-out: inhibit fungal infestation (percent disease control compared to untreated)

Row | SMILES | inhibition at 200 ppm [1] [%] | inhibition at 200 ppm (Phytophthora infestans) [%] | melting point [°C] | inhibition at 200 ppm (Pythium ultimum) [%] | inhibition at 200 ppm (Plasmopara viticola) [%] | inhibition at 200 ppm [2] [%]
1 | C#Cc1cnc2ccc(OC(SC)C(=O)NCc3nc(C)cs3)cc2c1 (stereo not drawn) [Compound 30] | ≥ 80 | ≥ 80 | 115 | ≥ 80 | ≥ 80 | –
2 | C#Cc1cnc2ccc(OC(SC)C(=O)NCc3nc(C)c(C)s3)cc2c1 (stereo not drawn) [Compound 31] | ≥ 80 | ≥ 80 | 126 | ≥ 80 | – | –
3 | C#Cc1cnc2ccc(OC(SC)C(=O)NC(C)(C)c3ccccn3)cc2c1 (stereo not drawn) [Compound 33] | ≥ 80 | ≥ 80 | – | ≥ 80 | ≥ 80 | ≥ 80
4 | C#Cc1cnc2c(C)cc(OC(SC)C(=O)NC(CC)c3ccccn3)cc2c1 (stereo not drawn) [Compound 60] | ≥ 80 | – | – | ≥ 80 | – | ≥ 80
5 | C#Cc1cnc2c(Cl)cc(OC(SC)C(=O)NC(C)(C)c3cc(C)on3)cc2c1 (stereo not drawn) [Compound 68] | ≥ 80 | – | – | ≥ 80 | ≥ 80 | ≥ 80
6 | C#Cc1cnc2c(C)cc(OC(SC)C(=O)NC(C)(C)c3nocc3C)cc2c1 (stereo not drawn) [Compound 75] | – | – | – | ≥ 80 | ≥ 80 | ≥ 80
7 | C#Cc1cnc2ccc(OC(SC)C(=O)NC(C)(C)c3nocc3C)cc2c1 (stereo not drawn) [Compound 78] | ≥ 80 | – | – | ≥ 80 | ≥ 80 | ≥ 80
8 | C#Cc1cnc2cc(F)c(OC(SC)C(=O)NC(C)(C)c3cccc(C)n3)cc2c1 (stereo not drawn) [Compound 111] | ≥ 80 | – | – | ≥ 80 | – | ≥ 80
9 | C#Cc1cnc2c(Cl)cc(OC(SC)C(=O)NC(C)(C)c3cccc(C)n3)cc2c1 (stereo not drawn) [Compound 113] | ≥ 80 | – | – | ≥ 80 | – | ≥ 80
10 | C#Cc1cnc2c(C)cc(OC(SC)C(=O)NCc3nccs3)cc2c1 (stereo not drawn) [Compound 116] | – | – | – | ≥ 80 | – | ≥ 80
11 | C#Cc1cnc2c(Cl)cc(OC(SC)C(=O)NCc3nccs3)cc2c1 (stereo not drawn) [Compound 117] | ≥ 80 | – | – | ≥ 80 | – | ≥ 80
12 | C=Cc1cnc2ccc(OC(SC)C(=O)NC(C)(C)c3ccccn3)cc2c1 (stereo not drawn) [Compound 133, N-[1-methyl-1-(2-pyridyl)ethyl]-2-methylsulfanyl-2-[(3-vinyl-6-quinolyl)oxy]acetamide] | – | – | 95 to 97 | – | – | –
13 | C=Cc1cnc2c(Cl)cc(OC(OC)C(=O)NC(C)(C)c3ccccn3)cc2c1 (stereo not drawn) [Compound 134] | ≥ 80 | – | 93 | ≥ 80 | ≥ 80 | –
14 | C=Cc1cnc2c(Cl)cc(OC(CC)C(=O)NC(C)(C)c3ccon3)cc2c1 (stereo not drawn) [Compound 136] | ≥ 80 | – | 104 | ≥ 80 | – | –
15 | C=Cc1cnc2c(F)cc(OC(CC)C(=O)NC(C)(C)c3nccs3)cc2c1 (stereo not drawn) [Compound 137] | ≥ 80 | ≥ 80 | 102 | ≥ 80 | ≥ 80 | –
16 | C=Cc1cnc2c(F)cc(OC(OC)C(=O)NC(C)(C)c3ccon3)cc2c1 (stereo not drawn) [Compound 138] | ≥ 80 | – | 118 | – | – | –
17 | C=Cc1cnc2c(F)cc(OC(CC)C(=O)NC(C)(C)c3cc(CC)on3)cc2c1 (stereo not drawn) [Compound 139] | – | ≥ 80 | 114 | ≥ 80 | ≥ 80 | –
18 | COC(Oc1cc(Cl)c2ncc(Br)cc2c1)C(=O)NC(C)(C)c1nccs1 (stereo not drawn) [Compound 140] | ≥ 80 | – | 111 | – | – | –
